Measurements as given in patent US20050112701A1, “Test system for the identification of APJ receptor ligands” (Aventis Pharma Deutschland GmbH, priority 2003, published 2005).
Ends that are not written are not given here.

Assays:
Type in all cases: cell-based
[1] = target: T1, APJ receptor (Homo sapiens, UniProt P35414); assay: FLIPR calcium assay, EC50 of apelin peptides in HEK293-PSCi4qi4-APJ cells; parameters: expressed in transfected cells; host or cells: HEK293-PSCi4qi4 (HEK 293 stably expressing Gαi4qi4); settings: intracellular calcium
T1 sequence (P35414 1-380): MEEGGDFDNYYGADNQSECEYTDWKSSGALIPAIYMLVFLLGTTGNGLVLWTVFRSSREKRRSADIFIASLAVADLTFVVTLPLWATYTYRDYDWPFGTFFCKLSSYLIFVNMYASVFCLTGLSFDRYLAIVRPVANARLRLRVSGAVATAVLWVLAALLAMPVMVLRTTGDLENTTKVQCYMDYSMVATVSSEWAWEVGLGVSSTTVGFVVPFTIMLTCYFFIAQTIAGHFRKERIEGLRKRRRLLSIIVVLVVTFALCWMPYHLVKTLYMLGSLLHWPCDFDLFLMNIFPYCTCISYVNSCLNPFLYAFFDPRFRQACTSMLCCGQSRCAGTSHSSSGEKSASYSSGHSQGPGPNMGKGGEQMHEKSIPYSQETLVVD
Protocol: (§1) The FLIPR calcium assay provides a suitable method for detecting changes in intracellular calcium concentration. It is a fluorescence-based assay which was performed according to the manufacture's instructions (Molecular Devices, CA, USA). Briefly summarized, cells were seeded on 96- or 384-well plates Loading Buffer was added to the cells and plates incubated for 1 hour at 37° C. After incubation cells were stimulated with the prevailing APJ receptor ligand or none. Thereafter intracellular calcium concentration was measured in the FLIPR according to the FLIPR system manual.

[2] = target: T1, APJ receptor; assay: FLIPR calcium assay in stably transfected HEK 293 cells overexpressing G protein and APJ receptor (FIG. 4); parameters: expressed in transfected cells; host or cells: HEK 293; settings: 50 nmol/l, 200 nmol/l, 1 μmol/l; HEK 293 stably cotransfected with G protein and APJ; response required APJ receptor
Protocol: Data presented are mean values (fluorescence intensity units, FIU) from 2 individual experiments performed in duplicate.
as §1

[3] = target: T1, APJ receptor; assay: FLIPR calcium assay in CHO cells transiently cotransfected with APJ receptor and G protein α subunits (FIG. 3); parameters: expressed in transfected cells; host or cells: CHO (Chinese hamster ovary), transient; settings: 1 μmol/l peptide; CHO cells cotransfected with APJ and α16 or αΔ6qi4myr; response required chimeric/promiscuous Gα subunit
Description: The APJ receptor was transiently cotransfected in CHO cells (Chinese hamster ovary cells) with vector DNA as a control (white column) or the G protein α subunits α16 (black column) and αΔ6qi4myr (striped column) according to methods known to the one skilled in the art. […] Data presented are mean values (fluorescence intensity units, FIU) from 2 individual experiments performed in duplicate.
as §1

EC50 ([1]; first of two independent measurements) [nM]	EC50 ([1]; second of two independent measurements) [nM]	intracellular calcium release via the APJ receptor [3]	Molecule	intracellular calcium release via the APJ receptor [2]
51	27	induced intracellular calcium release	LVQPRGSRNGPGPWQGGRRKFRRQRPRLSHKGPMPF [Apelin-36]	induced intracellular calcium release via the APJ receptor in a dose-dependent manner
		induced intracellular calcium release	CSCC[C@H](NC(=O)[C@@H]1CCCN1C(=O)CNC(=O)[C@H](CCCCN)NC(=O)[C@H](Cc1c[nH]cn1)NC(=O)[C@H](CO)NC(=O)[C@H](CC(C)C)NC(=O)[C@H](CCCNC(=N)N)NC(=O)[C@@H]1CCCN1C(=O)[C@@H](N)CCCNC(=N)N)C(=O)N1CCC[C@H]1C(=O)N[C@@H](Cc1ccccc1)C(=O)O [Apelin-12]	
